Experimental data as given in the CheMixHub viscosity set.
± gives the uncertainty stated by the source.

Assay: xn = mol fraction of the nth substance listed
Conditions: 100 kPa

NCCCN + OCCCO
viscosity [mPa·s]
Conditions | 293.15 K | 298.15 K | 303.15 K | 308.15 K | 313.15 K | 318.15 K
x2 = 0.0488 | 2.48 ± 0.042 | 2.207 ± 0.037 | 1.884 ± 0.032 | 1.707 ± 0.029 | 1.513 ± 0.025 | 1.454 ± 0.024
x2 = 0.0977 | 3.266 ± 0.055 | 2.887 ± 0.048 | 2.418 ± 0.041 | 2.17 ± 0.036 | 1.888 ± 0.032 | 1.837 ± 0.031
x2 = 0.1467 | 4.261 ± 0.071 | 3.71 ± 0.062 | 3.095 ± 0.052 | 2.765 ± 0.046 | 2.395 ± 0.04 | 2.296 ± 0.038
x2 = 0.1958 | 5.561 ± 0.093 | 5.116 ± 0.086 | 3.988 ± 0.067 | 3.529 ± 0.059 | 3.071 ± 0.051 | 2.924 ± 0.049
x2 = 0.2451 | 7.784 ± 0.13 | 6.598 ± 0.11 | 5.35 ± 0.09 | 4.639 ± 0.078 | 3.944 ± 0.066 | 3.722 ± 0.062
x2 = 0.2945 | 10.96 ± 0.18 | 9.104 ± 0.15 | 7.198 ± 0.12 | 6.175 ± 0.1 | 5.145 ± 0.086 | –
x2 = 0.3441 | 15.12 ± 0.25 | 12.35 ± 0.2 | 9.637 ± 0.16 | 8.272 ± 0.14 | 6.698 ± 0.11 | –
x2 = 0.3937 | 20.61 ± 0.34 | 16.58 ± 0.27 | 12.78 ± 0.21 | 10.64 ± 0.18 | 8.698 ± 0.14 | –
x2 = 0.4435 | 27.49 ± 0.45 | 22.54 ± 0.37 | 17.07 ± 0.28 | 14.02 ± 0.23 | 11.29 ± 0.19 | –
x2 = 0.4934 | 37.54 ± 0.62 | 29.33 ± 0.48 | 21.87 ± 0.36 | 17.83 ± 0.29 | 14.16 ± 0.23 | –
x2 = 0.5435 | 48.19 ± 0.79 | 37.19 ± 0.61 | 27.63 ± 0.45 | 22.21 ± 0.36 | 17.49 ± 0.29 | –
x2 = 0.5937 | 59.37 ± 0.96 | 45.53 ± 0.74 | 33.45 ± 0.55 | 26.75 ± 0.44 | 20.06 ± 0.33 | –
x2 = 0.644 | 68.67 ± 1.1 | 52.73 ± 0.84 | 38.69 ± 0.63 | 30.9 ± 0.5 | 24.13 ± 0.39 | –
x2 = 0.6945 | 75.47 ± 1.3 | 57.65 ± 0.92 | 42.48 ± 0.69 | 34 ± 0.55 | 26.62 ± 0.43 | –
x2 = 0.745 | 77.45 ± 1.3 | 60.06 ± 0.97 | 44.62 ± 0.73 | 35.77 ± 0.58 | 28.05 ± 0.46 | –
x2 = 0.7958 | 76.36 ± 1.3 | 59.6 ± 0.96 | 44.73 ± 0.73 | 36.13 ± 0.59 | 28.42 ± 0.46 | –
x2 = 0.8466 | 71.94 ± 1.2 | 56.84 ± 0.91 | 42.88 ± 0.7 | 34.89 ± 0.57 | 27.77 ± 0.45 | –
x2 = 0.8976 | 66.38 ± 1.1 | 52.57 ± 0.83 | 40 ± 0.65 | 32.8 ± 0.53 | 26.28 ± 0.43 | –
x2 = 0.9487 | 59.47 ± 0.96 | 47.41 ± 0.77 | 36.34 ± 0.59 | 30.05 ± 0.49 | 24.3 ± 0.4 | –

NCCCN + OCCOCCOCCO
viscosity [mPa·s]
Conditions | 293.15 K | 298.15 K | 303.15 K | 308.15 K | 313.15 K | 318.15 K
x2 = 0.0253 | 2.31 ± 0.03 | 2.01 ± 0.03 | – | 1.64 ± 0.03 | 1.46 ± 0.03 | 1.23 ± 0.03
x2 = 0.052 | 2.82 ± 0.03 | 2.42 ± 0.03 | 2.1 ± 0.03 | 1.9 ± 0.03 | 1.74 ± 0.03 | 1.45 ± 0.03
x2 = 0.0801 | 3.56 ± 0.04 | 3.07 ± 0.03 | 2.62 ± 0.03 | 2.28 ± 0.03 | 2.06 ± 0.03 | 1.69 ± 0.03
x2 = 0.1098 | 4.41 ± 0.04 | 3.74 ± 0.04 | 3.15 ± 0.03 | 2.72 ± 0.03 | 2.47 ± 0.03 | 2.02 ± 0.03
x2 = 0.1412 | 5.52 ± 0.04 | 4.68 ± 0.04 | 3.91 ± 0.04 | 3.33 ± 0.04 | 3 ± 0.03 | 2.43 ± 0.03
x2 = 0.1746 | 7.09 ± 0.05 | 5.97 ± 0.05 | 4.92 ± 0.04 | 4.16 ± 0.04 | 3.72 ± 0.04 | 2.99 ± 0.03
x2 = 0.21 | 8.97 ± 0.06 | 7.46 ± 0.05 | 6.09 ± 0.05 | 5.1 ± 0.04 | 4.54 ± 0.04 | 3.69 ± 0.04
x2 = 0.2476 | 11.9 ± 0.1 | 9.77 ± 0.06 | 7.87 ± 0.05 | 6.52 ± 0.05 | 5.7 ± 0.04 | 4.51 ± 0.04
x2 = 0.2877 | 15.8 ± 0.1 | 12.8 ± 0.1 | 10.1 ± 0.1 | 8.27 ± 0.05 | 7.16 ± 0.05 | 5.6 ± 0.04
x2 = 0.3305 | 21.6 ± 0.1 | 17.1 ± 0.1 | 13.3 ± 0.1 | 10.7 ± 0.1 | 9.13 ± 0.06 | 7.02 ± 0.05
x2 = 0.3762 | 29.3 ± 0.2 | 22.8 ± 0.1 | 17.5 ± 0.1 | 13.8 ± 0.1 | 11.6 ± 0.1 | 8.8 ± 0.06
x2 = 0.4254 | 38.8 ± 0.2 | 29.7 ± 0.2 | 22.5 ± 0.1 | 17.5 ± 0.1 | 14.6 ± 0.1 | 11 ± 0.1
x2 = 0.4782 | 50.2 ± 0.2 | 37.8 ± 0.2 | 28.3 ± 0.2 | 21.7 ± 0.1 | 17.9 ± 0.1 | 13.3 ± 0.1
x2 = 0.5352 | 59.8 ± 0.3 | 44.5 ± 0.2 | 33.2 ± 0.2 | 25.5 ± 0.1 | 20.8 ± 0.1 | 15.2 ± 0.1
x2 = 0.5969 | 70.2 ± 0.5 | 52.2 ± 0.2 | 38.6 ± 0.2 | 29.2 ± 0.2 | 23.7 ± 0.1 | 17.3 ± 0.1
x2 = 0.6638 | 72.7 ± 0.5 | 54.6 ± 0.2 | 40.6 ± 0.2 | 30.9 ± 0.2 | 25.2 ± 0.1 | 18.5 ± 0.1
x2 = 0.7366 | 72.1 ± 0.5 | 54.3 ± 0.2 | 40.7 ± 0.2 | 31.2 ± 0.2 | 25.7 ± 0.1 | 19.1 ± 0.1
x2 = 0.8162 | 66.3 ± 0.4 | 50.6 ± 0.2 | 38.4 ± 0.2 | 29.7 ± 0.2 | 24.7 ± 0.1 | 18.6 ± 0.1
x2 = 0.9036 | 57.9 ± 0.2 | 44.7 ± 0.2 | 34.3 ± 0.2 | 26.8 ± 0.1 | 22.5 ± 0.1 | 17.2 ± 0.1
